Data published in patent publication US8815872B2, “Macrocyclics pyrimidines as aurora kinase inhibitors” (Merck Patent GmbH, priority 2008, dated 2014).

Key:
Test in all cases: Other kinases, single-concentration inhibition (Table 3)
Format in all cases: biochemical
CaMKIV(h) = target: T1, CaMKIV(h) (Homo sapiens, UniProt Q16566)
T1 construct: purchased Caliper Life Sciences
T1 sequence (Q16566 1-473): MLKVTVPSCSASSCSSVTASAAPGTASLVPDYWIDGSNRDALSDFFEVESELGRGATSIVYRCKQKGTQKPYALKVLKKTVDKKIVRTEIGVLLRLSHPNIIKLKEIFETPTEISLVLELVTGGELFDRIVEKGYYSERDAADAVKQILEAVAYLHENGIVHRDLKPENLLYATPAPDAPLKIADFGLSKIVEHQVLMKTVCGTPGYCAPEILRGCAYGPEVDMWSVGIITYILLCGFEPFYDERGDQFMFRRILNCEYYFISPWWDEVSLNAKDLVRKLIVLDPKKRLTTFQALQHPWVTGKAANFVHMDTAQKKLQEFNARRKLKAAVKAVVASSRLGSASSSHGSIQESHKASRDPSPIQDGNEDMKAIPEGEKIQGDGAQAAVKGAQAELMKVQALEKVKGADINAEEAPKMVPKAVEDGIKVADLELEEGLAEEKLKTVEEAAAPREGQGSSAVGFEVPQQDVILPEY
Protocol: (§1) The Aurora and other kinase assays described here were performed on two Caliper Life Sciences systems, the LC3000 and the Desktop Profiler. These provide data on enzyme activity via measurement of the relative amounts of phosphorylated or unphosphorylated fluorescently labelled substrate peptide at the end of an enzymatic reaction. These different states of peptide are resolved by applying a potential difference across the sample. The presence of a charged phosphate group on the product (as opposed to the substrate) causes a different peptide mobility between the two peptides. This is visualized by excitation of a fluorescent label on the substrate and product peptides and represented as peaks within the analysis software.
(§2) The Desktop Profiler utilizes the same principal as the LC 3000 for calculating percentage conversion of a substrate to product. Caliper Life Sciences provided proprietary flash frozen pre-made 384 well plates containing selected kinases. Each column in the 384 well plate contained a particular selected kinase. A second plate, the ‘substrate plate’ contained a mix of fluorescently labeled peptide substrate and ATP. These were arranged in columns so that transfer for substrate plate to enzyme plate provided the correct enzyme with the correct substrate/ATP concentration.
(§3) Compounds were added to a thawed enzyme plate in the desired format, in single concentrations. Reactions were initiated by transfer of the ubstrate/ATP mix from the substrate plate. The enzyme plate was incubated for 90 mins at 25 °C. The reaction was stopped by addition of […] of Stop Buffer (100 mM HEPES pH 7.5, 0.015% Brij-35, 10 mM EDTA (Sigma, E7889)).
(§4) Plates were read in a manner identical to that of the LC3000, and the ratio between substrate and product peaks provided the activity of the enzyme in that well. This was best represented by a plate heat map which colors each well by percent inhibition as compared to positive and negative controls (no inhibitors and no ATP respectively).

IRAK4(h) = target: T2, IRAK4(h) (Homo sapiens, UniProt Q9NWZ3)
T2 construct: purchased Caliper Life Sciences
T2 sequence (Q9NWZ3 1-460): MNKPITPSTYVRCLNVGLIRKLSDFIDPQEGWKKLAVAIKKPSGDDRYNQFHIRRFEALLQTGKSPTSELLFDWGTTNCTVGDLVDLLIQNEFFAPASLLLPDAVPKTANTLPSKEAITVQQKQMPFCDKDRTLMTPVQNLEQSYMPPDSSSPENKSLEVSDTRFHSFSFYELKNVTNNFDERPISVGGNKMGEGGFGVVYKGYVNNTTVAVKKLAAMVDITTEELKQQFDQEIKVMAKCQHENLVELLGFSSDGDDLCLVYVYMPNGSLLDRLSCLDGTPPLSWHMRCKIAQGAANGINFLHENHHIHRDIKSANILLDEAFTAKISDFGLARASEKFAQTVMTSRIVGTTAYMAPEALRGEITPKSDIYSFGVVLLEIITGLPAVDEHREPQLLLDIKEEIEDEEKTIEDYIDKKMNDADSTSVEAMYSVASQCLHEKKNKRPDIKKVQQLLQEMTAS
Protocol: as §1, §2, §3, §4

Lyn(m) = target: T3, Lyn(m) (Mus musculus, UniProt P25911)
T3 construct: purchased Caliper Life Sciences
Protocol: as §1, §2, §3, §4

NEK2(h) = target: T4, NEK2(h) (Homo sapiens, UniProt P51955)
T4 construct: purchased Caliper Life Sciences
T4 sequence (P51955 1-445): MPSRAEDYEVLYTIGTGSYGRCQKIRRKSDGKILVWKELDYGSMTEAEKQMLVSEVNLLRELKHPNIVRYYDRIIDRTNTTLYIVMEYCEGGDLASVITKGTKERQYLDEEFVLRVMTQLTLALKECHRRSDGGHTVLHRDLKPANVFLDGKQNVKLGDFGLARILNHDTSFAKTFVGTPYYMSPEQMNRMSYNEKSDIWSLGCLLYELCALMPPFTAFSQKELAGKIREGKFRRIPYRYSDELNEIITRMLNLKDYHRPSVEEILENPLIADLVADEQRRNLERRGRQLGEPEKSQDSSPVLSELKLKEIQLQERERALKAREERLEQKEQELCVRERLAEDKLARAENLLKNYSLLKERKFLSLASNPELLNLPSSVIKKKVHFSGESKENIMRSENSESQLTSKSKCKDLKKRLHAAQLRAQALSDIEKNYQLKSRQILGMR
Protocol: as §1, §2, §3, §4

PDK1(h) = target: T5, PDK1(h) (Homo sapiens, UniProt O15530)
T5 construct: purchased Caliper Life Sciences
T5 sequence (O15530 1-556): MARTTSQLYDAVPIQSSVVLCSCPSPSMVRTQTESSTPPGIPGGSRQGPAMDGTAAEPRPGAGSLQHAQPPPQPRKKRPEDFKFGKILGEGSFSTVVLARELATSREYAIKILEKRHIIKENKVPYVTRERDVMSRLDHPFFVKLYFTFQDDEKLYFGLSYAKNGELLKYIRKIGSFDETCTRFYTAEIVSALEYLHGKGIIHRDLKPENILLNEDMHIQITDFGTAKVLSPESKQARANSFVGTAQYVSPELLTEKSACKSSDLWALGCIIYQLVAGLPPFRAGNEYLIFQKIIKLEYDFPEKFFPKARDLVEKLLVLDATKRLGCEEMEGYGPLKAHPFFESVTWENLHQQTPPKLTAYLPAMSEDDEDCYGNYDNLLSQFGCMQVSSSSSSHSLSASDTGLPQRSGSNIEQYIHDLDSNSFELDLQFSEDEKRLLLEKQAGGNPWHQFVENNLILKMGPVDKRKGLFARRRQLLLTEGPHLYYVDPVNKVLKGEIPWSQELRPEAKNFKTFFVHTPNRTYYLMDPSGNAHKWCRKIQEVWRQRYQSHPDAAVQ
Protocol: as §1, §2, §3, §4

PKCα(h) = target: T6, PKCα(h) (Homo sapiens, UniProt P17252)
T6 construct: purchased Caliper Life Sciences
Protocol: as §1, §2, §3, §4

Pyk2(h) = target: T7, Pyk2(h) (Homo sapiens, UniProt Q14289)
T7 construct: purchased Caliper Life Sciences
Protocol: as §1, §2, §3, §4

T7 sequence (Q14289 whole entry): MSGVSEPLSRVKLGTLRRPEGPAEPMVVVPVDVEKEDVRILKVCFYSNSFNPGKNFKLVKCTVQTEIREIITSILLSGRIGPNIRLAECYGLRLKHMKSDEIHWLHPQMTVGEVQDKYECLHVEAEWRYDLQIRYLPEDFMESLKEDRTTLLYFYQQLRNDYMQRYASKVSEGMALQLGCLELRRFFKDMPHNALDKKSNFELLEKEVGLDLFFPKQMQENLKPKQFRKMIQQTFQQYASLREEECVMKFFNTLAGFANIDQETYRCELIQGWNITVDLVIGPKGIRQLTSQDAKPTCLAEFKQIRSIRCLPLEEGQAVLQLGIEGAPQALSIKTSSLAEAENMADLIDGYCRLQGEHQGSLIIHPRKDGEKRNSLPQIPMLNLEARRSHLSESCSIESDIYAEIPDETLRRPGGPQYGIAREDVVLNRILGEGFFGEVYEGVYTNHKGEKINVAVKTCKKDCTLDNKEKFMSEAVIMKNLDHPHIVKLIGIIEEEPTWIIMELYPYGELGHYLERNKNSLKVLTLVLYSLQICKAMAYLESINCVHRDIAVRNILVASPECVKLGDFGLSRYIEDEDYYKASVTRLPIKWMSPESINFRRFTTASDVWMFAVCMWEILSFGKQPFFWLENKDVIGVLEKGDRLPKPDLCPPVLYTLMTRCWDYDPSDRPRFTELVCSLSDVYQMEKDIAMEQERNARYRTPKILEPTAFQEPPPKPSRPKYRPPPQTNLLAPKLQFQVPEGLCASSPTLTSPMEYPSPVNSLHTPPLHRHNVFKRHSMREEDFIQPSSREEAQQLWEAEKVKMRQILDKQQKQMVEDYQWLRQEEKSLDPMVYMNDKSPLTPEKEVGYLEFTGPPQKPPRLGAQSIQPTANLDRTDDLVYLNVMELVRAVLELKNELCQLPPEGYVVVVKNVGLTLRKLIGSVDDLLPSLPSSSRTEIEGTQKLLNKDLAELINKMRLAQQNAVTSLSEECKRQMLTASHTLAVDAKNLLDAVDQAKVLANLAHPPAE
T3 sequence (P25911 whole entry): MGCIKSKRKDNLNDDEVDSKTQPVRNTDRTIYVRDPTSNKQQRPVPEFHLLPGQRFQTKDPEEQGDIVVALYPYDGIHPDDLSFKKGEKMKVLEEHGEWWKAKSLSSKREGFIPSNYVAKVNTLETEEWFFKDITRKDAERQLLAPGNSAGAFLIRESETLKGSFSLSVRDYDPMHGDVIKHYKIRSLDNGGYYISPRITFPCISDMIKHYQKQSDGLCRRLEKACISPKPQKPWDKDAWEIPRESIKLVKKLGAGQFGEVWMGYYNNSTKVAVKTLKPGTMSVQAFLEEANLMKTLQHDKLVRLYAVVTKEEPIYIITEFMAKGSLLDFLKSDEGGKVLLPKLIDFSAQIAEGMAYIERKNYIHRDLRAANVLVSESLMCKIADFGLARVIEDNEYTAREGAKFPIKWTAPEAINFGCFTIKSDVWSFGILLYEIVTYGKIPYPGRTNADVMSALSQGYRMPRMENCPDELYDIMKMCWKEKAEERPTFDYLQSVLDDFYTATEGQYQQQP

% inhibition CaMKIV(h) (CaMKIV(h); 1 μM)	% inhibition IRAK4(h) (IRAK4(h); 1 μM)	% inhibition Lyn(m) (Lyn(m); 1 μM)	% inhibition NEK2(h) (NEK2(h); 1 μM)	% inhibition PDK1(h) (PDK1(h); 1 μM)	% inhibition PKCα(h) (PKCα(h); 1 μM)	% inhibition Pyk2(h) (Pyk2(h); 1 μM)	% inhibition CaMKIV(h) (CaMKIV(h); 10 μM)	% inhibition IRAK4(h) (IRAK4(h); 10 μM)	% inhibition Lyn(m) (Lyn(m); 10 μM)	% inhibition NEK2(h) (NEK2(h); 10 μM)	% inhibition PDK1(h) (PDK1(h); 10 μM)	% inhibition PKCα(h) (PKCα(h); 10 μM)	% inhibition Pyk2(h) (Pyk2(h); 10 μM)	SMILES
97%	81%	108%	110%	92%	84%	122%	–	–	–	–	–	–	–	CC[C@@H]1C[C@@H]2CCCOc3cccc(c3)Nc3ncc(F)c(n3)N[C@H]2[C@H]1C(N)=O (single isomer, unassigned) [Example 5]
100%	19%	2%	101%	108%	103%	31%	–	–	–	–	–	–	–	CN1CCN(c2ccc3cc2NC(=O)CS[C@@H]2C[C@@H]4C[C@H]2[C@@H](Nc2nc(ncc2F)N3)[C@H]4C(N)=O)CC1 [Example 24]
–	–	–	–	–	–	–	76%	31%	36%	92%	78%	91%	11%	O=C(O)[C@H]1[C@H]2C[C@H]3[C@H]1Nc1nc(ncc1F)Nc1cccc(c1)OCCS[C@@H]3C2 [Example 21]
11%	43%	111%	79%	88%	81%	99%	–	–	–	–	–	–	–	N#Cc1ccc2cc1NC(=O)CS[C@@H]1C[C@@H]3C[C@H]1[C@@H](Nc1nc(ncc1F)N2)[C@H]3C(N)=O [Example 26]
83%	52%	–	96%	112%	100%	27%	–	–	–	–	–	–	–	CN1CCN(c2ccc3cc2OCCS[C@@H]2C[C@@H]4C[C@H]2[C@@H](Nc2nc(ncc2F)N3)[C@H]4C(N)=O)CC1 [Example 22]
119%	90%	99%	98%	98%	94%	93%	–	–	–	–	–	–	–	NC(=O)[C@H]1[C@H]2C[C@H]3[C@H]1Nc1nc(ncc1F)Nc1cccc(c1)C(=O)CS[C@@H]3C2 [Example 11]
111%	12%	13%	113%	86%	102%	34%	–	–	–	–	–	–	–	NC(=O)[C@H]1[C@H]2C[C@H]3[C@H]1Nc1nc(ncc1F)Nc1cccc(c1)NC(=O)CS[C@@H]3C2 [Example 27]
140%	82%	104%	95%	102%	70%	94%	–	–	–	–	–	–	–	C=C[C@@H]1C[C@@H]2/C=C/COc3cccc(c3)Nc3ncc(F)c(n3)N[C@H]2[C@H]1C(N)=O (single isomer, unassigned) [Example 3]
103%	12%	27%	103%	80%	107%	15%	–	–	–	–	–	–	–	NC(=O)[C@H]1[C@H]2C[C@H]3[C@H]1Nc1nc(ncc1F)Nc1cccc(c1)OCCS[C@@H]3C2 [Example 20]
99%	52%	93%	107%	90%	90%	110%	–	–	–	–	–	–	–	CC[C@@H]1C[C@@H]2/C=C\COc3cccc(c3)Nc3ncc(F)c(n3)N[C@H]2[C@H]1C(N)=O (single isomer, unassigned) [Example 6]

SMILES	% inhibition CaMKIV(h) (CaMKIV(h); 1 μM)	% inhibition IRAK4(h) (IRAK4(h); 1 μM)	% inhibition Lyn(m) (Lyn(m); 1 μM)	% inhibition NEK2(h) (NEK2(h); 1 μM)	% inhibition PDK1(h) (PDK1(h); 1 μM)	% inhibition PKCα(h) (PKCα(h); 1 μM)	% inhibition Pyk2(h) (Pyk2(h); 1 μM)	% inhibition CaMKIV(h) (CaMKIV(h); 10 μM)	% inhibition IRAK4(h) (IRAK4(h); 10 μM)	% inhibition Lyn(m) (Lyn(m); 10 μM)	% inhibition NEK2(h) (NEK2(h); 10 μM)	% inhibition PDK1(h) (PDK1(h); 10 μM)	% inhibition PKCα(h) (PKCα(h); 10 μM)	% inhibition Pyk2(h) (Pyk2(h); 10 μM)
NC(=O)[C@H]1[C@H]2C[C@H]3[C@H]1Nc1nc(ncc1F)Nc1cccc(c1)CSS[C@@H]3C2 [Example 10]	66%	3%	8%	49%	96%	90%	13%	–	–	–	–	–	–	–
